This assay deals with T1, KCNT1 (KNa1.1, Slack) (Homo sapiens, UniProt Q5JUK3).
T1 construct: expressed in transfected cells; host or cells: HEK-TREX (tetracycline-inducible cell line)
T1 sequence (Q5JUK3 1-1230): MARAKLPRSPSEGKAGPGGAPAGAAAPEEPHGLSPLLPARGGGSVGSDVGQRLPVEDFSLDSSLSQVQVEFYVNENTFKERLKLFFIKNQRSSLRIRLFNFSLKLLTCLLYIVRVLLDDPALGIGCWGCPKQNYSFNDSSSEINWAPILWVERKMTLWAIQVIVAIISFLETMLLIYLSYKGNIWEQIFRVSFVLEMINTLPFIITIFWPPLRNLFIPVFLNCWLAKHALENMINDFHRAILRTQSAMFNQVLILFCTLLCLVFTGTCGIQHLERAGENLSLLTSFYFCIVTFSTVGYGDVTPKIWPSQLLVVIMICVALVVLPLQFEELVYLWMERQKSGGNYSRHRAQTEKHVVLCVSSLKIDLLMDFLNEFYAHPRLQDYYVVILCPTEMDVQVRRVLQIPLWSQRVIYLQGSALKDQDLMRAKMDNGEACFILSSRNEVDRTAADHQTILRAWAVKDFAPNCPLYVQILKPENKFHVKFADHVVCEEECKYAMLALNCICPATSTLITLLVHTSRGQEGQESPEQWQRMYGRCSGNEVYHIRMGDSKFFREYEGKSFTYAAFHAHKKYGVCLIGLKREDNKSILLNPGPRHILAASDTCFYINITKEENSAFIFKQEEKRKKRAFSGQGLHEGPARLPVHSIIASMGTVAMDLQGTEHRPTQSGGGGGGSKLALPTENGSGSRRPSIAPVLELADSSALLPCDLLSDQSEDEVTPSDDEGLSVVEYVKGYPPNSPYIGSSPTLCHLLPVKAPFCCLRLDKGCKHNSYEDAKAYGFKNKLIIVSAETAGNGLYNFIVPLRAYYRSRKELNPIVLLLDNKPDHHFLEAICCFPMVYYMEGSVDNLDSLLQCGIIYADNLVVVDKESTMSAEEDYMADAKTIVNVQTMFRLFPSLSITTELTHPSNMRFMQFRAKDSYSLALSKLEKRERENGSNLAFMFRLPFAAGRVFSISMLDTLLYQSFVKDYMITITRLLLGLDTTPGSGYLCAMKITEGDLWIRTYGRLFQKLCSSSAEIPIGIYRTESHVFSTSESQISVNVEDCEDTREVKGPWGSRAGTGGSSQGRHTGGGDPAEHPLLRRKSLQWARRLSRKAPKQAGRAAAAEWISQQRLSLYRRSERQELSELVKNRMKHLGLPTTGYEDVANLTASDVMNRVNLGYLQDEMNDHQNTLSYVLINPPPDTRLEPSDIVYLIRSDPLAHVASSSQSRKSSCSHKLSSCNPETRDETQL
In words: KCNT1-WT-Basal Patch Clamp Assay. It is filed as cell-based. The conditions noted are these: tetracycline inducible cell line (HEK-TREX); SyncroPatch 384PE automated patch clamp, perforated patch mode, room temperature, step from -80 mV to 0 mV. The gist of the method:
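Tetracycline-inducible HEK-TREX cells expressing human KCNT1, recorded by automated perforated patch clamp (10 μM escin) at room temperature, with 4 mM external K+ at pH 7.4. Mean current taken during a 100 ms step from −80 mV to 0 mV, averaged over 3 sweeps. IC50 from Hill fit of % inhibition; otherwise % inhibition at top concentration.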

Each structure is given as a SMILES string. pIC50: −log10 of the molar value. Some results are limits rather than exact numbers.

Turning to `COc1ccc(C(=O)N[C@@H](C)c2nc(-c3ccnc(C4CC4)c3)no2)cc1` [Compound I-61, (S)—N-(1-(3-(2-cyclopropylpyridin-4-yl)-1,2,4-oxadiazol-5-yl)ethyl)-4-methoxybenzamide], the pIC50 – broadly, −log10 of the IC50, conventionally taken in molar units – was at least 6.00.
The value for `C[C@H](NC(=O)C1(C#N)CC1)c1nc(-c2ccnc(C(F)(F)F)c2)no1` [Compound I-32, (S)-1-cyano-N-(1-(3-(2-(trifluoromethyl)pyridin-4-yl)-1,2,4-oxadiazol-5-yl)ethyl)cyclopropane-1-carboxamide] was at most 4.70.
On to `CC1CCCC1C(=O)N[C@@H](C)c1nc(-c2ccnc(C(F)(F)F)c2)no1` (stereo partly drawn) [Compound I-30, 2-methyl-N—((S)-1-(3-(2-(trifluoromethyl)pyridin-4-yl)-1,2,4-oxadiazol-5-yl)ethyl)cyclopentane-1-carboxamide], for which the negative logarithm of the IC50 (pIC50) was 4.70 to 6.00.
The value for `CC(NC(=O)c1cn2ccccc2n1)c1nc(-c2cccc(F)c2)no1` (stereo not shown) [Compound I-50, N-[1-[3-(3-fluorophenyl)-1,2,4-oxadiazol-5-yl]ethyl]imidazo[1,2-a]pyridine-2-carboxamide] was at most 4.70; that for `C[C@H](NC(=O)C12CC(C)(C1)C2)c1nc(-c2ccnc(C(F)(F)F)c2)no1` [Compound I-72, 3-methyl-N-[(1S)-1-[3-[2-(trifluoromethyl)-4-pyridyl]-1,2,4-oxadiazol-5-yl]ethyl]bicyclo[1.1.1]pentane-1-carboxamide] was 4.70 to 6.00; that for `C[C@H](NC(=O)C1CCCC1)c1nc(-c2ccnc(C3CC3)c2)no1` [Compound I-105, (S)—N-(1-(3-(2-cyclopropylpyridin-4-yl)-1,2,4-oxadiazol-5-yl)ethyl)cyclopentanecarboxamide] was at least 6.00.
In the case of `Cc1ncc(C(=O)NC(C)c2nc(-c3cccc(F)c3)no2)c(C)n1` (stereo not shown) [Compound I-48, N-[1-[3-(3-fluorophenyl)-1,2,4-oxadiazol-5-yl]ethyl]-2,4-dimethyl-pyrimidine-5-carboxamide] it was at most 4.70; in that of `C[C@H](NC(=O)C1CCOCC1)c1nc(-c2ccnc(C(F)(F)F)c2)no1` [Compound I-12, (S)—N-(1-(3-(2-(trifluoromethyl)pyridin-4-yl)-1,2,4-oxadiazol-5-yl)ethyl)tetrahydro-2H-pyran-4-carboxamide], at most 4.70; in that of `C[C@H](NC(=O)c1cc(F)cc(F)c1)c1nc(-c2ccnc(C3CC3)c2)no1` [Compound I-102, (S)—N-(1-(3-(2-cyclopropylpyridin-4-yl)-1,2,4-oxadiazol-5-yl)ethyl)-3,5-difluorobenzamide], at least 6.00.
In the case of `C[C@H](NC(=O)N1CCCCC1)c1nc(-c2ccnc(C(F)(F)F)c2)no1` [II-10], the pIC50 is 4.70 to 6.00.
In the case of `CC(NC(=O)c1ccc2c(c1)OCCO2)c1nc(-c2cccc(F)c2)no1` (stereo not shown) [Compound I-51, N-[1-[3-(3-fluorophenyl)-1,2,4-oxadiazol-5-yl]ethyl]-2,3-dihydro-1,4-benzodioxine-6-carboxamide] it was 4.70 to 6.00; in that of `C[C@H](NC(=O)[C@@H](C)c1ccccc1)c1nc(-c2ccnc(C3CC3)c2)no1` [Compound I-64, (2S)—N-[(1S)-1-[3-(2-cyclopropyl-4-pyridyl)-1,2,4-oxadiazol-5-yl]ethyl]-2-phenyl-propanamide], at least 6.00; in that of `Cc1nc(C)c(C(=O)N[C@H](C)c2nc(-c3cccc(F)c3)no2)s1` [Compound I-37, (R)—N-(1-(3-(3-fluorophenyl)-1,2,4-oxadiazol-5-yl)ethyl)-2,4-dimethylthiazole-5-carboxamide], 4.70 to 6.00.
In the case of `CC(C)Oc1cc(-c2noc([C@H](C)NC(=O)C3CCCC3)n2)ccn1` [Compound I-46, (S)—N-(1-(3-(2-isopropoxypyridin-4-yl)-1,2,4-oxadiazol-5-yl)ethyl)cyclopentane-carboxamide] it was at least 6.00; in that of `C[C@H](NC(=O)c1cccc(Cl)c1)c1nc(-c2ccnc(C3CCC3)c2)no1` [Compound I-100, (S)-3-chloro-N-(1-(3-(2-cyclobutylpyridin-4-yl)-1,2,4-oxadiazol-5-yl)ethyl) benzamide], at least 6.00; in that of `C[C@H](NC(=O)c1ccns1)c1nc(-c2ccnc(C(F)(F)F)c2)no1` [Compound I-22, (S)—N-(1-(3-(2-(trifluoromethyl)pyridin-4-yl)-1,2,4-oxadiazol-5-yl)ethyl)isothiazole-5-carboxamide], 4.70 to 6.00.
